Data from ChEMBL document CHEMBL4507270 (2021).

Tests used:
[1] = target: T1, Ephrin type-B receptor 6 (Homo sapiens, UniProt O15197); assay: NanoBRET assay (SGC Frankfurt) with EPHB6
T1 sequence (O15197 whole entry): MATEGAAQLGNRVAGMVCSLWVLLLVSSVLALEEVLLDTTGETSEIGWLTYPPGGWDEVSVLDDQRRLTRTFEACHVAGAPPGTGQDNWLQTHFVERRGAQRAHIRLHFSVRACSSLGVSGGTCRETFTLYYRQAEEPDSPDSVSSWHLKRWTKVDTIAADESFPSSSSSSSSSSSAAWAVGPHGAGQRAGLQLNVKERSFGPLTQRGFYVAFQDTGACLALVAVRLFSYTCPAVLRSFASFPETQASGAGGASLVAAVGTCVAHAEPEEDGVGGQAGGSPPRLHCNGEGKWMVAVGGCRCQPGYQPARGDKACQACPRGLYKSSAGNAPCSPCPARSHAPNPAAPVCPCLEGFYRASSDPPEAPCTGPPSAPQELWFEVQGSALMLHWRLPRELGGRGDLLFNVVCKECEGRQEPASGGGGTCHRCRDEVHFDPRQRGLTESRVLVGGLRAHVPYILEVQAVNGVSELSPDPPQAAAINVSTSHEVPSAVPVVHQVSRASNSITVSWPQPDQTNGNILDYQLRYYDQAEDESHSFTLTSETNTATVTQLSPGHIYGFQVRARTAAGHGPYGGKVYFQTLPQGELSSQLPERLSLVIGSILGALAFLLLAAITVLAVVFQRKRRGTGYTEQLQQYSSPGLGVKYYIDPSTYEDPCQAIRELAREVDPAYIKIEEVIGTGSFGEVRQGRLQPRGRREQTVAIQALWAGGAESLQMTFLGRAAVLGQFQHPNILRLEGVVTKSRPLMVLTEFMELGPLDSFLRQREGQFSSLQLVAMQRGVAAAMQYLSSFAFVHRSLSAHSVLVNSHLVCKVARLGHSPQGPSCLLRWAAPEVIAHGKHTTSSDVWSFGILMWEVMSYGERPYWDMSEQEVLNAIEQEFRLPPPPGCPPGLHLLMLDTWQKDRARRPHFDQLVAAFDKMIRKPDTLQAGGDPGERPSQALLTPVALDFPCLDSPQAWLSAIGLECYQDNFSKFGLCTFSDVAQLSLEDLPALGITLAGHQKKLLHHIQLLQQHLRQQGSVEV

[2] = target: AP2-associated protein kinase 1 (Homo sapiens) (UniProt Q2M2I8)
[3] = target: Serine/threonine-protein kinase BRSK2 (Homo sapiens) (UniProt Q8IWQ3)
[4] = target: Calcium/calmodulin-dependent protein kinase type II subunit beta (Homo sapiens) (UniProt Q13554)
[5] = target: Calcium/calmodulin-dependent protein kinase kinase 1 (Homo sapiens) (UniProt Q8N5S9)
[6] = target: Cyclin-dependent kinase-like 5 (Homo sapiens) (UniProt O76039)
[7] = target: Dual specificity protein kinase CLK2 (Homo sapiens) (UniProt P49760)
Sequence of Dual specificity protein kinase CLK2 (Homo sapiens) (P49760 whole entry, looked up): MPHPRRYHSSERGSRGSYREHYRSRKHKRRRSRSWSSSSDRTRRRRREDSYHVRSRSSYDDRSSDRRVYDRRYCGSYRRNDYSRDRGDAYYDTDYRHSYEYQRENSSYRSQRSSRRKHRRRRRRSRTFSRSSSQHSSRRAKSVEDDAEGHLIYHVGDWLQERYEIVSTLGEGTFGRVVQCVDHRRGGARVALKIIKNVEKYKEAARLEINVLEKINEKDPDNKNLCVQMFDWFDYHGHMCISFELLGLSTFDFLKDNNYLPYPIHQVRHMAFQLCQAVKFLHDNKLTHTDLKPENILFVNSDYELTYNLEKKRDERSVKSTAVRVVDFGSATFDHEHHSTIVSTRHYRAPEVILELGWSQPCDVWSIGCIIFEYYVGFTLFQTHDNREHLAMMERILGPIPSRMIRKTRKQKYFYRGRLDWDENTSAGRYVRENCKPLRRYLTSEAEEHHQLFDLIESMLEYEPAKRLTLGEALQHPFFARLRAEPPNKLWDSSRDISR

[8] = target: Casein kinase II subunit alpha (Homo sapiens) (UniProt P68400)
[9] = target: Death-associated protein kinase 2 (Homo sapiens) (UniProt Q9UIK4)
[10] = target: Serine/threonine-protein kinase 17A (Homo sapiens) (UniProt Q9UEE5)
[11] = target: Glycogen synthase kinase-3 alpha (Homo sapiens) (UniProt P49840)
[12] = target: Homeodomain-interacting protein kinase 3 (Homo sapiens) (UniProt Q9H422)
[13] = target: Homeodomain-interacting protein kinase 4 (Homo sapiens) (UniProt Q8NE63)
Sequence of Homeodomain-interacting protein kinase 4 (Homo sapiens) (Q8NE63 whole entry): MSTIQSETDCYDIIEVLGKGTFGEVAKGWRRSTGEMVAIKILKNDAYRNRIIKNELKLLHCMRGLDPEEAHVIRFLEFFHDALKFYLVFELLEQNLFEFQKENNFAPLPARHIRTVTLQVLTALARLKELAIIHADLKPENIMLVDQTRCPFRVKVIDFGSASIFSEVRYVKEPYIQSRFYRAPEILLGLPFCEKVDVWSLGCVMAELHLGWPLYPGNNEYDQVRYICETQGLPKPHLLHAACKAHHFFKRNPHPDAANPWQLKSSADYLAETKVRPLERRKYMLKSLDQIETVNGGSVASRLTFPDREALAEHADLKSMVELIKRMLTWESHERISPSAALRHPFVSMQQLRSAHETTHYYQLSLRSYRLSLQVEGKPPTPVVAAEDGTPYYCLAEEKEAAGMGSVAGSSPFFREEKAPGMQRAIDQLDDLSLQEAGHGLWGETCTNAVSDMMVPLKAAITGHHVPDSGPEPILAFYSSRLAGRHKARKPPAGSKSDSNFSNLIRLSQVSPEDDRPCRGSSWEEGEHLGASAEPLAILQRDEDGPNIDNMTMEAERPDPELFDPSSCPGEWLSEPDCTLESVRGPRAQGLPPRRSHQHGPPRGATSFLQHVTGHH

[14] = target: Hormonally up-regulated neu tumor-associated kinase (Homo sapiens) (UniProt P57058)
[15] = target: Tyrosine-protein kinase JAK3 (Homo sapiens) (UniProt P52333)
Sequence of Tyrosine-protein kinase JAK3 (Homo sapiens) (P52333 whole entry): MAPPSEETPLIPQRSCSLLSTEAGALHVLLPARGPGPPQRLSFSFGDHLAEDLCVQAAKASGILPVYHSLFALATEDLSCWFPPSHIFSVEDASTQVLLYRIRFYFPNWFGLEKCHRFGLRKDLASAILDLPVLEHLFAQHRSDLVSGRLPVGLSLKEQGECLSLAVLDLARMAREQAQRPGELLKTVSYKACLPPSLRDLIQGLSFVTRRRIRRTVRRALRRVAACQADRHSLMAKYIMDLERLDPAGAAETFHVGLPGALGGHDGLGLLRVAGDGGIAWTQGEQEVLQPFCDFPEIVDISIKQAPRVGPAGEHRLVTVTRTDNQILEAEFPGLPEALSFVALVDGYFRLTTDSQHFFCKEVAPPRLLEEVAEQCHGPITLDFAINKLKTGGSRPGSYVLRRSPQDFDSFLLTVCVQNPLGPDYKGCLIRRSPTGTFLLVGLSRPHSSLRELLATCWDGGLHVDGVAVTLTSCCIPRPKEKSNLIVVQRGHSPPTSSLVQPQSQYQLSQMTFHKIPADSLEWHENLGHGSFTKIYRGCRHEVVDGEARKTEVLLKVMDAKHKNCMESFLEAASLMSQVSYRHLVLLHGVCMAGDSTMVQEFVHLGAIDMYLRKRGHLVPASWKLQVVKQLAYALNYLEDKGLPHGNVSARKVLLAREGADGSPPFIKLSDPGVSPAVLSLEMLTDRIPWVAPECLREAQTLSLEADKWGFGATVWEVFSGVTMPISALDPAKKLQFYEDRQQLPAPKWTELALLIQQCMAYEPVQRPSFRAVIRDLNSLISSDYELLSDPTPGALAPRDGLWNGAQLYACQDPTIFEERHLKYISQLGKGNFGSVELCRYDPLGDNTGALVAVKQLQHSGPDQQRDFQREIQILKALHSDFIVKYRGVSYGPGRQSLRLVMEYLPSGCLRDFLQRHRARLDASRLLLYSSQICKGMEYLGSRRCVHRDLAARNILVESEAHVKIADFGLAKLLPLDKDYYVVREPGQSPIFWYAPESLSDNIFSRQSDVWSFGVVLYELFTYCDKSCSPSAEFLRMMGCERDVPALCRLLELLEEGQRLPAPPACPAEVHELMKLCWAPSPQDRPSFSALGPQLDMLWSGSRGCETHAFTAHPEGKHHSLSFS

[16] = target: Serine/threonine-protein kinase Nek11 (Homo sapiens) (UniProt Q8NG66)
[17] = target: Serine/threonine-protein kinase Nek4 (Homo sapiens) (UniProt P51957)
[18] = target: Serine/threonine-protein kinase Nek9 (Homo sapiens) (UniProt Q8TD19)
[19] = target: Cyclin-dependent kinase 15 (Homo sapiens) (UniProt Q96Q40)
Sequence of Cyclin-dependent kinase 15 (Homo sapiens) (Q96Q40 whole entry, the tested form may be a part): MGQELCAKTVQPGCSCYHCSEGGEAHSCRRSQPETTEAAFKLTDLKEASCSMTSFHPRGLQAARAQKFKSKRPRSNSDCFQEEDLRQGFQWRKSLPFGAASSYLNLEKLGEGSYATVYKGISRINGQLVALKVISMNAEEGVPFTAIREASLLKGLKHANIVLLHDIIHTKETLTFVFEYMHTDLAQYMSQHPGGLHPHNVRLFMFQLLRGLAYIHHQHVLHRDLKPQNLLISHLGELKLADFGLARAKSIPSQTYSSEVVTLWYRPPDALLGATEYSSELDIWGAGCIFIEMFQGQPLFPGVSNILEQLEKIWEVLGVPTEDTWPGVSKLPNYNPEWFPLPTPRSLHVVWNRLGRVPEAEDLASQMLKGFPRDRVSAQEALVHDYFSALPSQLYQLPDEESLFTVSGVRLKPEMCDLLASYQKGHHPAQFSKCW

[20] = target: Phosphatidylinositol 4-phosphate 3-kinase C2 domain-containing subunit beta (Homo sapiens) (UniProt O00750)
[21] = target: Phosphatidylinositol 4-phosphate 5-kinase type-1 gamma (Homo sapiens) (UniProt O60331)
Sequence of Phosphatidylinositol 4-phosphate 5-kinase type-1 gamma (Homo sapiens) (O60331 whole entry): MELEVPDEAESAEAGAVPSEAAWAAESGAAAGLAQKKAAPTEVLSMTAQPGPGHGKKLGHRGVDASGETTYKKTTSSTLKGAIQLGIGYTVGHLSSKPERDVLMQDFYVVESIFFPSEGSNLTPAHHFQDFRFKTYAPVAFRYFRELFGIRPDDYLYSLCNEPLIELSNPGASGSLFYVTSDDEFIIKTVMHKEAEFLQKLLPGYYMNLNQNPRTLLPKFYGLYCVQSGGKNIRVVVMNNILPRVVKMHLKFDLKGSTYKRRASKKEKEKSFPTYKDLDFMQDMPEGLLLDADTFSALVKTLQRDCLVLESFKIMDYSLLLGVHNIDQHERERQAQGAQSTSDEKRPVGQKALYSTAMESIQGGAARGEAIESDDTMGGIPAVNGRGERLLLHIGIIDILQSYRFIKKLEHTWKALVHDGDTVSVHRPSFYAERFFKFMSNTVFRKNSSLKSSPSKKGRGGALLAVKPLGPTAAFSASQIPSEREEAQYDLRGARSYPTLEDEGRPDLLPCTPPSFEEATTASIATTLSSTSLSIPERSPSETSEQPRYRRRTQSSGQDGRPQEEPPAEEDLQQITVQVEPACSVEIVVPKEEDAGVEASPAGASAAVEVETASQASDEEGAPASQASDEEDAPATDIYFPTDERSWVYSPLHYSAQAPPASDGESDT

[22] = target: Receptor-interacting serine/threonine-protein kinase 1 (Homo sapiens) (UniProt Q13546)
[23] = target: Rho-associated protein kinase 1 (Homo sapiens) (UniProt Q13464)
[24] = target: Ribosomal protein S6 kinase alpha-4 (Homo sapiens) (UniProt O75676)
[25] = target: Ribosomal protein S6 kinase alpha-5 (Homo sapiens) (UniProt O75582)
[26] = target: Ribosomal protein S6 kinase alpha-3 (Homo sapiens) (UniProt P51812)
Sequence of Ribosomal protein S6 kinase alpha-3 (Homo sapiens) (P51812 whole entry): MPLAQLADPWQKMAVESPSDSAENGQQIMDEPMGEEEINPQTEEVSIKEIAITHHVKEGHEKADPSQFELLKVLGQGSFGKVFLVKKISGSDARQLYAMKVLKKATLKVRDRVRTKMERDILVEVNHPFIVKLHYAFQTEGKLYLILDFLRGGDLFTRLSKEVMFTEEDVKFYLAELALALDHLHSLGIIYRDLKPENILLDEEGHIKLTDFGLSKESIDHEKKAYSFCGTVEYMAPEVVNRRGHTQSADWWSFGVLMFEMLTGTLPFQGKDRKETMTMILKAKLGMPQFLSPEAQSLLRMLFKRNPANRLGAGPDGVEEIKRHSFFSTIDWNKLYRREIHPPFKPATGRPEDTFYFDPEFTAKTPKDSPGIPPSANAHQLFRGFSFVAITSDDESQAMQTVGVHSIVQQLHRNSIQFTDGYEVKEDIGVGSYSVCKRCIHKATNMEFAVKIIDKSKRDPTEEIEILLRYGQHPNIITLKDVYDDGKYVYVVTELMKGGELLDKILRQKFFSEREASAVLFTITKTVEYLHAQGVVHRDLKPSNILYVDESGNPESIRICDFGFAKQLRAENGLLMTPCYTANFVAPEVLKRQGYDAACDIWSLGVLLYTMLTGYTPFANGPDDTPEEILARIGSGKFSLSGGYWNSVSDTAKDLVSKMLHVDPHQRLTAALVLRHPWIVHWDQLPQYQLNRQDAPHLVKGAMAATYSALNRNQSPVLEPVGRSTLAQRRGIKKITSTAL

[27] = target: Ribosomal protein S6 kinase alpha-6 (Homo sapiens) (UniProt Q9UK32)
Sequence of Ribosomal protein S6 kinase alpha-6 (Homo sapiens) (Q9UK32 whole entry): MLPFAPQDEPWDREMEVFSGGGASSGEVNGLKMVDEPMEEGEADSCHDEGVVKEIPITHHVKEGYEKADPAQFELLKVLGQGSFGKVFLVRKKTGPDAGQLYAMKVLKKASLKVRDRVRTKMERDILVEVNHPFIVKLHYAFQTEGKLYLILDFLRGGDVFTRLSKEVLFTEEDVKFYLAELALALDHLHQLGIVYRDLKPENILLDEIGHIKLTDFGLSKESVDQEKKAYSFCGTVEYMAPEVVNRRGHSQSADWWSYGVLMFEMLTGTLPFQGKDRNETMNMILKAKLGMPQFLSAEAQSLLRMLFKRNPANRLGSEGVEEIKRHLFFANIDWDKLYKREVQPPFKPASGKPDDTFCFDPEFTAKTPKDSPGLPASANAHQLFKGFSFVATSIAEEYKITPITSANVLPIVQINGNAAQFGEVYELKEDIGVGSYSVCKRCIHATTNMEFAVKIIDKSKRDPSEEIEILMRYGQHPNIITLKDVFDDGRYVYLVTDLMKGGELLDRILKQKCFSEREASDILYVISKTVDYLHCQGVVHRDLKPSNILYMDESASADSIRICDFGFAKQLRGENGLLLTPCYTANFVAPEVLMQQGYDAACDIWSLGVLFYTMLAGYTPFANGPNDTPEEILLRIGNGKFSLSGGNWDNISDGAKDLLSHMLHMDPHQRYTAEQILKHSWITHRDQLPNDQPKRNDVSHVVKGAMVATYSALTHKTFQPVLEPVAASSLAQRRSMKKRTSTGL

[28] = target: Serine/threonine-protein kinase 33 (Homo sapiens) (UniProt Q9BYT3)
[29] = target: Angiopoietin-1 receptor (Homo sapiens, UniProt Q02763)
[30] = target: Mitogen-activated protein kinase kinase kinase 19 (Homo sapiens) (UniProt Q56UN5)
[31] = target: Kappa-type opioid receptor (Homo sapiens, UniProt P41145); settings: Compound concentration 10.0 uM
[32] = Compound concentration 1000.0 nM
[33] = Compound concentration 100.0 nM

Cc1cc(NC(=O)c2cccc(S(F)(F)(F)(F)F)c2)cc(-n2ccn3nc(-c4cccnc4)cc23)c1 [BAY-309]
EC50 [1]: 27 µM (not active)
IC50 [1]: 11 µM (not active)
residual activity [2, 32]: 100%
residual activity [3, 32]: 100%
residual activity [4, 32]: 100%
residual activity [5, 32]: 100%
residual activity [6, 32]: 100%
residual activity [7, 32]: 100%
residual activity [8, 32]: 66.7%
residual activity [9, 32]: 100%
residual activity [10, 32]: 100%
residual activity [11, 32]: 100%
residual activity [12, 32]: 88.8%
residual activity [13, 32]: 100%
residual activity [14, 32]: 77.6%
residual activity [15, 32]: 96.9%
residual activity [16, 32]: 57.5%
residual activity [17, 32]: 92.9%
residual activity [18, 32]: 100%
residual activity [19, 32]: 59.9%
residual activity [20, 32]: 100%
residual activity [21, 32]: 100%
residual activity [22, 32]: 80.7%
residual activity [23, 32]: 74.8%
residual activity [24, 32]: 100%
residual activity [25, 32]: 100%
residual activity [26, 32]: 66.6%
residual activity [27, 32]: 100%
residual activity [28, 32]: 87.8%
residual activity [29, 32]: 84.2%
residual activity [30, 32]: 100%
inhibition [31]: 64.8%

Cc1cc(C)c(-n2ccn3nc(-c4cccnc4)cc23)cc1NC(=O)c1cc(C#N)cc(S(F)(F)(F)(F)F)c1 [BAY-826]
EC50 [1]: 12 µM (not active)
IC50 [1]: 3.9 µM (not active)
residual activity [2, 33]: 95.9%
residual activity [3, 33]: 97.5%
residual activity [4, 33]: 87.5%
residual activity [5, 33]: 93.6%
residual activity [6, 33]: 100%
residual activity [7, 33]: 91%
residual activity [8, 33]: 74.2%
residual activity [9, 33]: 75.8%
residual activity [10, 33]: 100%
residual activity [11, 33]: 100%
residual activity [12, 33]: 80.7%
residual activity [13, 33]: 95.6%
residual activity [14, 33]: 83%
residual activity [15, 33]: 95.3%
residual activity [16, 33]: 86.1%
residual activity [17, 33]: 90.2%
residual activity [18, 33]: 72.2%
residual activity [19, 33]: 76%
residual activity [20, 33]: 93.4%
residual activity [21, 33]: 70.2%
residual activity [22, 33]: 91.5%
residual activity [23, 33]: 74.9%
residual activity [24, 33]: 79.3%
residual activity [25, 33]: 83.2%
residual activity [26, 33]: 84.4%
residual activity [27, 33]: 74.9%
residual activity [28, 33]: 100%
residual activity [29, 33]: 3.1%
residual activity [30, 33]: 99.5%
inhibition [31]: 89.4%
